How the values were obtained:
ACA19 cells = conditions: human, 24 h, 100 uM
Procedure: (§1) The compounds of Formula I and Formula II cytotoxicity in human colon cancer SW620 (FIG. 8A), vascular HUVEC (FIG. 8B) and human melanoma ACA19 (FIG. 9C) cells was assessed in the absence or presence of various concentrations of the compounds of Formula I and Formula II (the chemotherapeutic drug Etoposide, Etop, was also included as positive control) by Lactate dehydrogenase (LDH) release assay.
(§2) The compounds of Formula I and Formula II cytotoxicity in human colon cancer SW620 (FIG. 8A), vascular HUVEC (FIG. 8B) and human melanoma (ACA19+) cells, which was assessed in the absence or presence of various concentrations of the compounds of Formula I and Formula II (the chemotherapeutic drug Etoposide, Etop, was also included as positive control) by Lactate dehydrogenase (LDH) release assay.
(§3) SW620 and ACA19+ cells (5×10^4 cells/ml) were seeded into 96-well plate in DMEM and incubated at […] 5% CO2 for 24 hr. HUVECs (1.0×10^5 cells/ml) was seeded in EBM medium and incubated for 24-36 hr until they formed a monolayer. Compound inhibitors at different concentrations were then introduced to the cells (10× lysis buffer was included as maximum LDH activity control) for 24 hr. The culture medium was transferred to a new plate and was mixed with equal volume of reaction mixture provided in the kit for 30 min at room temperature before the absorbance was measured at 490 nm (reference 680 nm) by a spectrophotometer.

HUVEC cells = conditions: human, 24 h, 100 uM
Procedure: as §1, §2, §3

SW620 cells = conditions: human, 24 h, 100 uM
Procedure: as §1, §2, §3

[1] = tested on: Salmonella typhimurium strain TA100; assay: Ames test (genotoxicity); format: cell-based
Procedure: (§4) Mutagenic potential of the compound of Formula I was assessed by Ames test in two Salmonella typhimurium strains TA98 and TA100 without and with metabolic activation (S9).
(§5) Effect of the compound inhibitors on genotoxicity was determined using the Salmonella typhimurium strains of TA 98 and TA 100 in the presence and absence of metabolic activation (S9). Each test concentration included the vehicle and positive controls. Briefly, the compounds were serially diluted in 24-well plates with or without the presence metabolic activation system (S9) and was incubated for 90 min at 37° C. in 250 rpm in a orbital shaking incubator. TA98 and TA100 were then introduced to the wells for 90 min. 50 μL aliquots from each well was dispensed into 384 well plates and incubated for 48 hrs at 37° C. in an incubator before positive wells were scored.

[2] = tested on: Salmonella typhimurium strain TA98; assay: Ames test (genotoxicity); format: cell-based
Procedure: as §4, §5

Structure (SMILES) | cytotoxicity (LDH release) (ACA19 cells) [%] | cytotoxicity (LDH release) (HUVEC cells) [%] | cytotoxicity (LDH release) (SW620 cells) [%] | revertant colony count [1] | revertant colony count [2]
COc1cc([C@@H]2c3cc4c(cc3[C@@H](O[C@@H]3O[C@@H]5CO[C@@H](C)O[C@H]5[C@H](O)[C@H]3O)[C@H]3COC(=O)[C@H]23)OCO4)cc(OC)c1O [Etoposide] | ~100 | ~100 | ~100 |  | 
Nc1ccc2cc3ccccc3cc2c1 [Formula 2AA, reference compound] |  |  |  | distinct increase | distinct increase

From patent US20260137696A1, “Compositions Comprising an Inhibitor of Galectin-3” (University of Liverpool, priority 2023, published 2026)
